The source of these data is ChEMBL document CHEMBL1743341, “Cytochrome p450 enzymes mechanism based inhibitors: common sub-structures and reactivity” (Curr Drug Metab, 2005).

Data set [1] addresses T1, Cytochrome P450 3A4 (Homo sapiens, UniProt P08684). The data set can be described thus: (§1) Mechanism based inhibition of human cytochrome P450 3A4 measured by midazolam 1'-hydroxylation. It counts as ADME.
The target of data set [2] is T2, CYP3A4 (Homo sapiens, UniProt P08684). The description is as §1. It counts as ADME. The following applies: probe midazolam (1'-hydroxylation).
T2 sequence (P08684 whole entry): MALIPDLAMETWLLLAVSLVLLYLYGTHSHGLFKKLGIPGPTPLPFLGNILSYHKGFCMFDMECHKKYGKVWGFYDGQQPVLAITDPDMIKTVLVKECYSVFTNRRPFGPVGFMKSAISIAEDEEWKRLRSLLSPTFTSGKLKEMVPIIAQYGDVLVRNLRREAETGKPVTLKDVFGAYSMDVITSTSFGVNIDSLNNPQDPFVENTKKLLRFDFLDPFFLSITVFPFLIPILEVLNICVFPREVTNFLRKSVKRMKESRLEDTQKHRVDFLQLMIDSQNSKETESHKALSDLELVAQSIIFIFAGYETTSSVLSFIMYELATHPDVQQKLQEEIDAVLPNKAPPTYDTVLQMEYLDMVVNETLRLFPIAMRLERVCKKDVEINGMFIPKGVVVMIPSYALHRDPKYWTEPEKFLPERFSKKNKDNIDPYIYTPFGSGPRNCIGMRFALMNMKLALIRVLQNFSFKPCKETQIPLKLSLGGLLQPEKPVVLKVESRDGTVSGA
For data set [3], the target named is T1, Cytochrome P450 3A4. Nature of the data set: (§2) Mechanism based inhibition of human cytochrome P450 3A4 measured by testosterone 6-beta hydroxylation. In kind it is ADME.
Data set [4] concerns the target T2, CYP3A4. Described as §2. In kind it is ADME. Conditions: human, probe testosterone (6-beta hydroxylation).
For data set [5], the target named is T2, CYP3A4. Nature of the data set: Mechanism based inhibition of human cytochrome P450 3A4 measured by triazolam 4- hydroxylation using recombinant CYP3A4. It counts as ADME. The following applies: recombinant CYP3A4, probe triazolam (4-hydroxylation).
For data set [6], the target named is T2, CYP3A4. The data set can be described thus: Mechanism based inhibition of human cytochrome P450 3A4 measured by triazolam alpha- hydroxylation using human liver microsomes. In kind it is ADME, Microsome. The following applies: probe triazolam (alpha-hydroxylation). (Liver microsomes are a subcellular fraction often used to study metabolism.)
The target of data set [7] is T2, CYP3A4. The data set can be described thus: Mechanism based inhibition of human cytochrome P450 3A4 measured by triazolam 4- hydroxylation using human liver microsomes. It counts as ADME, Microsome. The following applies: probe triazolam (4-hydroxylation).
The target of data set [8] is T2, CYP3A4. Nature of the data set: Mechanism based inhibition of human cytochrome P450 3A4 measured by triazolam alpha- hydroxylation using recombinant CYP3A4. In kind it is ADME. The following applies: recombinant CYP3A4, probe triazolam (alpha-hydroxylation).
For data set [9], the target named is T1, Cytochrome P450 3A4. Nature of the data set: Mechanism based inhibition of human cytochrome P450 3A4 measured by midazolam hydroxylation in vivo. It counts as ADME, organism-based.
Data set [10] deals with T3, Cytochrome P450 2B1 (Rattus norvegicus, UniProt P00176).
T3 sequence (P00176 whole entry): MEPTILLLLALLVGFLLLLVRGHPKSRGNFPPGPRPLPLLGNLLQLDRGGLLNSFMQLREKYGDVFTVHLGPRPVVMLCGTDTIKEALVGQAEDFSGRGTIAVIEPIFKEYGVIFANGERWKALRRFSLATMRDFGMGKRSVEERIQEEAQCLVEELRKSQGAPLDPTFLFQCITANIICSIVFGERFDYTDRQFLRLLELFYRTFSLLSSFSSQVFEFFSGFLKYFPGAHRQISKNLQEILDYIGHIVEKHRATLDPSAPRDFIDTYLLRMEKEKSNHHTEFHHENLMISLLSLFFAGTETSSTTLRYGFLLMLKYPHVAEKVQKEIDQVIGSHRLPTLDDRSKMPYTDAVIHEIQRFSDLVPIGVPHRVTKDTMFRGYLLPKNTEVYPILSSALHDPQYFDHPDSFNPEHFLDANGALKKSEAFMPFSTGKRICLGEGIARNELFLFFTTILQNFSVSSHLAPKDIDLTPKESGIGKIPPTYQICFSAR
The data set can be described thus: Mechanism based inhibition of rat cytochrome P450 2B1 measured by 7-EFC O-deethylation.

Data set [11] deals with T4, Cytochrome P450 2B6 (Homo sapiens, UniProt P20813).
T4 sequence (P20813 whole entry): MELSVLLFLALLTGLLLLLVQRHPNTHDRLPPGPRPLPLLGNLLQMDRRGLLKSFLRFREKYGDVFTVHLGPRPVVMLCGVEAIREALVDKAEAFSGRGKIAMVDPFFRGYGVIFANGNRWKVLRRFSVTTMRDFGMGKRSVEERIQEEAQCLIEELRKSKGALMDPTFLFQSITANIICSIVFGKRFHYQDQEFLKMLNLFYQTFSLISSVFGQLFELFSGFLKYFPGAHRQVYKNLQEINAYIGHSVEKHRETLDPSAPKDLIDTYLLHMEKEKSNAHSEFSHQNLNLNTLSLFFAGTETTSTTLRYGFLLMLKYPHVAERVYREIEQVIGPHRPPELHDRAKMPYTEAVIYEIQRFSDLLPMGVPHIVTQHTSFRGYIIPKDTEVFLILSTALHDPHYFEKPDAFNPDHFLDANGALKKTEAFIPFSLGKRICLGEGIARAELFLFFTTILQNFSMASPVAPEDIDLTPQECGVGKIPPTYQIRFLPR
The data set can be described thus: (§3) Mechanism based inhibition of human cytochrome P450 2B6 measured by 7-EFC O-deethylation.

In data set [12] the target is T4, Cytochrome P450 2B6. The description is as §3. The source holds these as a separate data set.
The target of data set [13] is T5, Cytochrome P450 2A6 (Homo sapiens, UniProt P11509).
T5 sequence (P11509 whole entry): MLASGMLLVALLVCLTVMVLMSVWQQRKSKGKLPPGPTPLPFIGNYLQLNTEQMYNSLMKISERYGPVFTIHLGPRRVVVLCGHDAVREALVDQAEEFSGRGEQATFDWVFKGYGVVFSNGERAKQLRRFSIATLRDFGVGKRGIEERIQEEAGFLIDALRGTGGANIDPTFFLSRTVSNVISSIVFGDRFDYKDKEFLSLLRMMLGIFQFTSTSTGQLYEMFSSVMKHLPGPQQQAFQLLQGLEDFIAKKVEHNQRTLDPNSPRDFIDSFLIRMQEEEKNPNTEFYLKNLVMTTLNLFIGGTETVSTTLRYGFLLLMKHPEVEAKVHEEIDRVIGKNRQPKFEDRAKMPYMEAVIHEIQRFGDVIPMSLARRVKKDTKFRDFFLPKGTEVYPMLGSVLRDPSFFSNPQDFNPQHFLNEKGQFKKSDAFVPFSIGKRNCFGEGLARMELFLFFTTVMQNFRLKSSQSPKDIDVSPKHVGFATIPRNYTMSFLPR
The data set can be described thus: Mechanism based inhibition of human cytochrome P450 2A6, partition ratio. It counts as ADME.

Data set [14] deals with T5, Cytochrome P450 2A6. Nature of the data set: (§4) Mechanism based inhibition of human cytochrome P450 2A6 measured by coumarin 7-hxdroxylation using purified P450. In kind it is ADME.
Data set [15] deals with T6, CYP2A6 (Homo sapiens, UniProt P11509).
T6 sequence (P11509 whole entry): T5 sequence (P11509 whole entry)
The data set is described as §4. It counts as ADME. Conditions: human, purified CYP2A6, probe coumarin (7-hydroxylation).

In data set [16] the target is T5, Cytochrome P450 2A6. The data set can be described thus: (§5) Mechanism based inhibition of human cytochrome P450 2A6 measured by coumarin 7-hydroxylation using human liver microsomes. In kind it is ADME, Microsome.
The target of data set [17] is T6, CYP2A6. The description is as §5. In kind it is ADME, Microsome. The following applies: human, human liver microsomes, probe coumarin.
Data set [18] concerns the target T1, Cytochrome P450 3A4. The data set can be described thus: Mechanism based inhibition of human cytochrome P450 3A4 measured by testosterone 6-beta hydroxylation and midazolam 1'-hydroxylation. In kind it is ADME.
Data set [19] concerns the target Cytochrome P450 3A5 (Homo sapiens, UniProt P20815). Nature of the data set: (§6) Mechanism based inhibition of human cytochrome P450 3A5 using expressed CYP3A5 cDNA. In kind it is ADME.
In data set [20] the target is CYP3A5 (Homo sapiens, UniProt P20815). Described as §6. It counts as ADME. Conditions: human, cDNA-expressed CYP3A5.
Chain of CYP3A5 (P20815 whole entry): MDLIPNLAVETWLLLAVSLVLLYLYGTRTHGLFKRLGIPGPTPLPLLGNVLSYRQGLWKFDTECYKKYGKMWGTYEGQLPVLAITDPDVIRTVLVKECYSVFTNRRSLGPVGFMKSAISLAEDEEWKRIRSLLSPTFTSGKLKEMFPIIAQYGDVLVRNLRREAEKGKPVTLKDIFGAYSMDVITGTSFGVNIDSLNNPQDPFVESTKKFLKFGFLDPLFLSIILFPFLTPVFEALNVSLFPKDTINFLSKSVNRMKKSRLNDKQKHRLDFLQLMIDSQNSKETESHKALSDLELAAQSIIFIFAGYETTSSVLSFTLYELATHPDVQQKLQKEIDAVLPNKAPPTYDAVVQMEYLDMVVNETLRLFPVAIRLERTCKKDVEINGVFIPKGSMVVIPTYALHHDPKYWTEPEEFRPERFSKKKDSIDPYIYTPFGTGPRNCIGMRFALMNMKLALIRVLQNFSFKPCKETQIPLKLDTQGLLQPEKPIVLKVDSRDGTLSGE
Data set [21] deals with T1, Cytochrome P450 3A4. Nature of the data set: (§7) Mechanism based inhibition of human cytochrome P450 3A4 measured by testosterone 6-beta hydroxylation using a recombinant system. In kind it is ADME.
Data set [22] deals with T2, CYP3A4. Described as §7. In kind it is ADME. The following applies: human, recombinant CYP3A4 system, probe testosterone (6-beta hydroxylation).
The target of data set [23] is T1, Cytochrome P450 3A4. The data set can be described thus: (§8) Mechanism based inhibition of human cytochrome P450 3A4 using expressed CYP3A4 cDNA. It counts as ADME.
Data set [24] deals with T2, CYP3A4. The data set is described as §8. In kind it is ADME. Conditions: human, cDNA-expressed CYP3A4.
Data set [25] has as its target T1, Cytochrome P450 3A4. The data set can be described thus: (§9) Mechanism based inhibition of human cytochrome P450 3A4 measured by testosterone 6-beta hydroxylation using human liver microsomes. In kind it is ADME, Microsome.
The target of data set [26] is T2, CYP3A4. The data set is described as §9. In kind it is ADME, Microsome. Conditions: human, liver microsomes, probe testosterone (6-beta hydroxylation).
The target in data set [27] is T5, Cytochrome P450 2A6. Nature of the data set: (§10) Mechanism based inhibition of human cytochrome P450 2A6 measured by coumarin 7-hydroxylation. It counts as ADME.
In data set [28] the target is T6, CYP2A6. Described as §10. In kind it is ADME. The following applies: human, probe coumarin (7-hydroxylation).
For data set [29], the target named is T4, Cytochrome P450 2B6. The data set can be described thus: Mechanism based inhibition of human cytochrome P450 2B6, partition ratio (value refers to P450 expressed in lymphoblastoid cells). In kind it is ADME, cell-based.

“And” between values parts separate entries of the source, which are not always exact repeats. Equal values may be shown once.

T1 sequence (P08684 whole entry): as the sequence (P08684 whole entry) above
Chain of Cytochrome P450 3A5 (P20815 whole entry): as the sequence (P20815 whole entry) above

As to `CC/C(=C(\c1ccccc1)c1ccc(OCCN)cc1)c1ccccc1` [DESMETHYL TAMOXIFEN], the results for the Ki in data set [1] and in [3] were 12000 nM and 2600 nM, respectively. Further, the kinact in data set [2] was 0.00217 s⁻¹; in [4] it was 0.00133 s⁻¹.

With `CC[C@H]1OC(=O)[C@H](C)[C@@H](O[C@H]2C[C@@](C)(OC)[C@@H](O)[C@H](C)O2)[C@H](C)[C@@H](O[C@@H]2O[C@H](C)C[C@H](N(C)C)[C@H]2O)[C@](C)(O)C[C@@H](C)C(=O)[C@H](C)[C@@H](O)[C@]1(C)O` [ERYTHROMYCIN], the kinact in data set [5] was 0.00162 s⁻¹; in data set [6] it was 0.00103 s⁻¹; in [7], 0.000917 s⁻¹; in [8] it was 0.00288 s⁻¹. Moreover, in [3], the mechanism based inhibition result was “Cytochrome P450 mechanistic inhibitor: PMID 9806945”.

Regarding `C#C[C@]1(O)CC[C@H]2[C@@H]3CCc4cc(O)ccc4[C@H]3CC[C@@]21C` [ETHINYL ESTRADIOL], the mechanism based inhibition entry in data set [9] is reported as “Cytochrome P450 mechanistic inhibitor: PMID 11012556”. Further, the values for the Ki in data set [10], in data set [11] and in data set [12] were 11000 nM, 800 nM and 900 nM, respectively.

As for `Cc1coc2c1CCC(C)C2` (stereo not given) [MENTHOFURAN], the Partition ratio in data set [13] turned out to be 3.5. The Ki in data set [14] turned out to be 840 nM; in [16] it was 2500 nM. Also, the kinact in data set [15] is 0.00417 s⁻¹; in data set [17], 0.00367 s⁻¹.

Take `COCC(=O)O[C@]1(CCN(C)CCCc2nc3ccccc3[nH]2)CCc2cc(F)ccc2[C@@H]1C(C)C` [MIBEFRADIL]: in [18], the mechanism based inhibition entry was “Cytochrome P450 mechanistic inhibitor: PMID 10640508”.

In the case of `COc1ccc(CCNCCCC(C#N)(c2ccc(OC)c(OC)c2)C(C)C)cc1OC` (stereo not given) [NORVERAPAMIL], the Ki was found to be 4530 nM in data set [19], 5890 nM in data set [21], 10300 nM in [23] and 2110 nM in data set [25]. Further, the kinact in data set [20] was 0.00117 s⁻¹; in data set [22] it was 0.0187 s⁻¹; in [24], 0.005 s⁻¹; in data set [26], 0.0035 s⁻¹.

The molecule `O=c1ccc2cc3ccoc3cc2o1` [PSORALEN] came in with a Ki in data set [27] of 600 nM. Moreover, the kinact in data set [28] was 0.005 s⁻¹. Further, the Partition ratio in [29] is 46 and 71.2.

Usually kinact stands for the maximal first-order rate at which the target is inactivated.
